According to patent US20260125356A1, “TREATMENT OF LEISHMANIASIS” (THE UNIVERSITY OF DURHAM, priority 2022, published 2026):
Converted amounts (≈) assume the structure as drawn. Read-outs that look alike come from different tables or passages of the source.

Legend:
[1] = system: L. amazonensis promastigotes; assay: L. amazonensis promastigote dose response assay (alamarBlue/resazurin); type: cell-based; conditions: 44 hrs + 4 hrs alamarBlue/resazurin, 26° C., read-out: EC50 (L. amaz)/μM
L. major promastigotes = assay: L. major promastigote dose response assay (alamarBlue/resazurin); type: cell-based; conditions: 44 hrs + 4 hrs alamarBlue/resazurin, 26° C.
Description: (§1) Using a standard alamarBlue™ assay, activity and selectivity were assessed using L. major promastigotes and HepG2 cells, respectively.
All parasite and human cell cultures were grown and manipulated following biosafety level 2 instructions under sterile conditions. L. major FV1, L. amazonensis (MHOM/Br/75/JOSEFA), L. donovani BOB (derived from MHOM/SD/62/1S-CL2D), T. brucei (90-13, 427 strain) and T. cruzi (Dm28c) were used throughout.
All steps were carried out under sterile conditions. Frozen stocks of the relevant Leishmania promastigote species were thawed rapidly and added to Schneider's media. Promastigotes were grown at 26° C. in Nunc EasYFlask 25 cm^2 Nunclon Delta Surface (ThermoScientific) and frozen stocks were prepared on low passage cultures (p2-4) by pelleting the cells by centrifugation and resuspending in Schneider's media with 10% DMSO. The cultures were aliquoted into cryovials (Starlab) and cooled slowly to −150° C. for long term storage.
All steps were carried out under sterile conditions. […] Cycloheximide or amphotericin B were used as positive controls and 2% DMSO was used as a negative control. alamarBlue® (ThermoFisher scientific) or resazurin solution was added to each well and incubated for a further 4 hrs at 26° C. Cell-viability was determined using a BioTek™ FLx800 microplate reader with Gen5® 1.08 data analysis software (BioTek) by monitoring fluorescence emission (λex 560/λem 590 nm). Dose response curves were fitted using sigmoidal regression analysis (GraphPad Prism 8 software) and used to calculate EC50 values.

[2] = system: L. donovani promastigotes; assay: L. donovani promastigote dose response assay (resazurin); type: cell-based; conditions: promastigotes, 72 hrs at 26° C., resazurin, read-out: EC50 (L. don)/μM
Kinetic solubility = conditions: for solubility at 2 h: kinetic from dmso stock
Source text: All chemicals and solvents were sourced from commercial suppliers. Buffers were made up using purified water from a MilliQ® water purification system. Biorelevant buffers (FESSIF, FASSIF and FASSGF) were purchased from Biorelevant and made up according to manufacturer's instructions. 15% FBS (heat inactivated, South American origin, ThermoFisher scientific) in PBS (Fisher Scientific) was filter sterilised (0.22 μm Fisherbrand™ Sterile PES Syringe Filter, Fisher Scientific) before use. Sodium taurocholate was purchased from Merck.
λmax was determined for each compound from the UV-Vis absorption spectrum of a 200 LIM compound solution in buffer of interest using a Varian Cary® 100 UV-Vis Spectrophotometer. A calibration curve of λmax VS concentration was obtained by serial dilution of compound from 200 μM in the buffer of interest, correcting for background buffer absorption. For each sample, a DMSO solution of compound was incubated in buffer of interest (<5% DMSO) for 2 hrs at RT. The solution was filtered (0.22 μm Fisherbrand™ Sterile PES Syringe Filter, Fisher Scientific) or centrifuged (14,500 rpm, 10 min) to remove undissolved debris and the supernatant was removed and diluted as required. The corrected UV absorption of the supernatant at Amax Was measured using a Varian Cary® 100 UV-Vis Spectrophotometer and compared to the calibration curve to determine compound solubility.

[3] = parameters: species or system swiss albino mice; conditions: mouse, in vivo
Description: DMPK studies were performed by GVK BIO Sciences Pvt Ltd Hyderabad, India, in collaboration with LifeArc. Three swiss albino mice per experiment were inoculated (IP or oral) with compound at 10 mg kg^−1 in 10% DMSO (2 mg mL^−1) on day 1. A small blood sample (50 μL) was taken after 15 minutes, 30 minutes, 1 hr, 2 hr, 4 hr, 6 hr, 8 hr and 24 hr. Proteins were precipitated in acetonitrile and the supernatant was diluted in 1:1 methanol:water and subject to LCMS analysis. The concentration of compound in the blood was determined by comparing the peak area to a calibration curve.

HepG2 cells = assay: HepG2 cytotoxicity dose response assay; conditions: read-out: CC50 (HepG2)/μM, 44 hrs + 4 hrs alamarBlue/resazurin
Description: as §1
All steps were carried out under sterile conditions. HepG2 cells were thawed rapidly into DMEM. Cells were grown at 37° C., 5% CO2 for >5 days in T-75 CytoOne® Flask, TC-Treated, Vented flasks (Starlab) in a Sanyo MCO-18M incubator. […] The trypsin was deactivated by addition of DMEM. The cells were homogenised and 5 mL of cell culture was added to 20 mL fresh DMEM. Cells were split 1:4 every 3 days. Frozen stocks were prepared in the same way as the passage, but resuspended into DMEM with 10% DMSO, aliquoted into cryovials (Starlab) and cooled slowly to −150° C. for long term storage.
All steps were carried out under sterile conditions. 80-100% confluent HepG2 were plated into Corning™ Costar™ 96-Well Flat-Bottom Microplates (Fisher Scientific) by adding 200 μL of a homogenous dispersion of cells at a concentration of 0.6×10^5 cells mL^−1 before incubation at 37° C., 5% CO2 overnight. […] The plates were incubated at 37° C., 5% CO2 for 44 hrs in a Sanyo MCO-18M incubator. alamarBlue® (ThermoFisher scientific) or resazurin solution (10 μL) was added to each well and incubated for a further 4 hrs at 37° C., 5% CO2. Cell-viability was determined using a BioTek™ FLx800 microplate reader with Gen5® 1.08 data analysis software (BioTek) by monitoring fluorescence emission (Nex 560/hem 590 nm). Dose response curves were fitted using sigmoidal regression analysis (GraphPad Prism 8 software) and used to calculate EC50 values.

S. aureus (FDA209P) = assay: Antibacterial MIC/growth assay, S. aureus; type: cell-based; conditions: 16 hours at 37° C., absorbance 600 nm
Description: DMSO was used as a solvent control at a maximum final concentration of 10% (a greater percentage than would be achieved using the compounds at the concentrations in question). Plates were incubated at 37° C. with shaking for 16 hours before measuring absorbance at 600 nm. These values were then used to calculate percentage growth at each dilution of compound in comparison to growth in the absence of compound. The following day, the contents of each well were resuspended using a multichannel pipette, and 5 μl from each well was then applied to LB agar plates. These were incubated at 30° C. in a stationary incubator for 16 hours before imaging.

[4] = kinetic solubility in PBS, 2 hrs at RT
[5] = kinetic solubility in FESSIF, 2 hrs at RT

Row | Molecule | EC50 [1] [µM] | EC50 (L. major promastigotes) [µM] | EC50 [2] [µM] | Solubility (PBS)/μM (Kinetic solubility; [4]) [µM] | also measured
1 | N-(3-cyanothiophen-2-yl)-5′-nitrothiophene-2′-carboxamide [Compound 5] | 2.1 | 1.1 | 1.12 |  | 
2 | O=C(Nc1ccccc1)c1ccc([N+](=O)[O-])s1 [Compound 33, 5′-nitro-N-phenylthiophene-2′-carboxamide] | 3.6 | 4.06 | 0.93 | 15 (≈ 3.72 µg/mL) | 
3 | Methyl 2-(5′-nitrothiophene-2′-amido)thiophene-3-carboxylate [Compound 3] | 0.91 | 0.59 | 0.3 |  | pharmacokinetic profile [3]: poor pharmacokinetic profiles
4 | CNC(=O)C1CCCC1NC(=O)c1ccc([N+](=O)[O-])s1 (racemic) [Compound 25, N—[±2′-(methylcarbamoyl)cyclopentyl]-5′-nitrothiophene-2-carboxamide] | 8 | 20 | 3.4 |  | 
5 | CNC(=O)c1ccsc1/N=C/c1ccc([N+](=O)[O-])s1 [Compound 50, N-methyl-2-[(E)-[(5′-nitrothiophen-2′-yl)methylidene]amino]thiophene-3-carboxamide] |  |  |  |  | EC50 (L. major promastigotes; Leishmania major, 48 h): 0.86 ± 0.07 µM; solubility at 2 h (Kinetic solubility; PBS, aqueous buffer): 101 ± 6 µM (≈ 29.8 µg/mL)
6 | CNC(=O)c1ccc(Br)cc1NC(=O)c1ccc([N+](=O)[O-])s1 [Compound 46, N-[5-bromo2-(methylcarbamoyl)phenyl]-5′-nitrothiophene-2′-carboxamide] | 0.048 | 0.57 | 0.12 | <2.5 | CC50 (HepG2 cells): 7.2 µM; Solubility (FESSIF)/μM (Kinetic solubility; [5]): 210 µM (≈ 80.7 µg/mL)
7 | CNC(=O)c1ccc(OCCC2CCOCC2)cc1NC(=O)c1ccc([N+](=O)[O-])s1 [Compound 54, N-[2-(methylcarbamoyl)-5-[2″-(oxan-4″-yl)ethoxy]phenyl]-5′-nitrothiophene-2′-carboxamide] |  |  |  |  | EC50 ([1]; Leishmania amazonensis, 48 h): 0.46 µM; inhibition of growth of S. aureus (S. aureus (FDA209P)): effective at inhibiting the bacteria at low concentrations; EC50 (L. major promastigotes; Leishmania major, 48 h): 0.33 µM; EC50 ([2]; Leishmania donovani): 0.34 µM; solubility at 2 h (Kinetic solubility; FESSIF): 47 µM (≈ 20.4 µg/mL); solubility at 2 h (Kinetic solubility; PBS, aqueous buffer): 3.7 µM (≈ 1.6 µg/mL)
8 | CNC(=O)c1ccc(C)cc1NC(=O)c1ccc([N+](=O)[O-])s1 [Compound 44, N-[5-methyl-2-(methylcarbamoyl)phenyl]-5′-nitrothiophene-2′-carboxamide] | 0.027 | 0.34 | 0.005 | <7.4 | CC50 (HepG2 cells): 31 µM; Solubility (FESSIF)/μM (Kinetic solubility; [5]): 65 µM (≈ 20.8 µg/mL)
9 | CNC(=O)c1ccc(OCCOCCOC)cc1NC(=O)c1ccc([N+](=O)[O-])s1 [Compound 51, N-{5-[2″-(2″-methoxyethoxy)ethoxy]-2-(methylcarbamoyl)phenyl}-5′-nitrothiophene-2′-carboxamide] |  |  |  |  | EC50 ([1]; Leishmania amazonensis, 48 h): 0.22 µM; EC50 (L. major promastigotes; Leishmania major, 48 h): 0.32 µM; EC50 ([2]; Leishmania donovani): 0.19 µM; solubility at 2 h (Kinetic solubility; FASSGF, fassgf or other biorelevant): 11 µM (≈ 4.66 µg/mL); solubility at 2 h (Kinetic solubility; FASSIF): < 7.4 µM; solubility at 2 h (Kinetic solubility; FESSIF): 7.26 µM (≈ 3.07 µg/mL); solubility at 2 h (Kinetic solubility; PBS, aqueous buffer): 2.27 µM (≈ 0.961 µg/mL)
10 | CNC(=O)c1ccsc1NC(=O)c1ccc([N+](=O)[O-])o1 [Compound 17, N-[3-(methylcarbamoyl)thiophen-2-yl]-5′-nitrofuran-2′-carboxamide] |  |  |  |  | EC50 ([1]; Leishmania amazonensis, 48 h): 0.33 µM; EC50 (L. major promastigotes; Leishmania major, 48 h): 0.37 µM; EC50 ([2]; Leishmania donovani): 0.2 µM
11 | N-methyl-2-(5′-nitrothiophene-2′-amido)thiophene-3-carboxamide [Compound 2] | 0.29 | 0.99 | 0.033 |  | pharmacokinetic profile [3]: poor pharmacokinetic profiles
12 | CNC(=O)c1ccc(C(F)(F)F)cc1NC(=O)c1ccc([N+](=O)[O-])s1 [Compound 45, N-[2-(methylcarbamoyl)-5-(trifluoromethyl)phenyl]-5′-nitrothiophene-2′-carboxamide] | 0.24 | 1.84 |  | 6.5 (≈ 2.43 µg/mL) | CC50 (HepG2 cells): 13 µM; Solubility (FESSIF)/μM (Kinetic solubility; [5]): 250 µM (≈ 93.3 µg/mL)
13 | N-(3-carbamoylthiophen-2-yl)-5′-nitrothiophene-2′-carboxamide [Compound 1] | 0.042 | 0.52 | 0.004 |  | pharmacokinetic profile [3]: poor pharmacokinetic profiles
14 | NC(=O)c1ccccc1NC(=O)c1ccc([N+](=O)[O-])s1 [Compound 27, N-(2-carbamoylphenyl)-5′-nitrothiophene-2′-carboxamide] | 0.079 | 0.47 |  |  | Solubility (FESSIF)/μM (Kinetic solubility): 90 µM (≈ 26.2 µg/mL); Solubility (PBS)/μM (Kinetic solubility): <2.5 µM
15 | CNC(=O)c1ccc(OC)cc1NC(=O)c1ccc([N+](=O)[O-])s1 [Compound 43, N-[5-methoxy-2-(methylcarbamoyl)phenyl]-5′-nitrothiophene-2′-carboxamide] | 0.021 | 0.33 | 0.006 | <7.4 | CC50 (HepG2 cells): > 100 µM; Solubility (FESSIF)/μM (Kinetic solubility; [5]): 38 µM (≈ 12.7 µg/mL)
16 | CNC(=O)c1ccc(C(C)(C)C)cc1NC(=O)c1ccc([N+](=O)[O-])s1 [Compound 55, N-[5-tert-butyl-2-(methylcarbamoyl)phenyl]-5′-nitrothiophene-2′-carboxamide] |  |  |  |  | EC50 ([1]; Leishmania amazonensis, 48 h): 2.5 µM; EC50 (L. major promastigotes; Leishmania major, 48 h): 1.35 µM; EC50 ([2]; Leishmania donovani): 1.3 µM; solubility at 2 h (Kinetic solubility; FESSIF): 260 µM (≈ 94 µg/mL); solubility at 2 h (Kinetic solubility; PBS, aqueous buffer): < 2.5 µM
17 | CNC(=O)c1ccccc1NC(=O)c1ccc([N+](=O)[O-])s1 [Compound 28, N-[2-(methylcarbamoyl)phenyl]-5′-nitrothiophene-2′-carboxamide] | 0.052 | 0.65 | 0.012 | 8.5 (≈ 2.6 µg/mL) | CC50 (HepG2 cells): 5 µM; Solubility (FESSIF)/μM (Kinetic solubility; [5]): 143 µM (≈ 43.7 µg/mL)
18 | Ethyl 2-(5′-nitrothiophene-2′-amido)thiophene-3-carboxylate [Compound 4] | 1.85 | 0.93 |  |  | pharmacokinetic profile [3]: poor pharmacokinetic profiles
